# Assays:
# [1] = tested on: Mycobacterium tuberculosis; test: Antimicrobial activity against non-replicating Mycobacterium tuberculosis after 11 days by luminescence based low oxygen recovery assay; assay type: functional; conditions: 264 h
# [2] = tested on: Mycobacterium tuberculosis; test: Antimicrobial activity against replicating Mycobacterium tuberculosis after 8 days by micro plate alamar blue assay; assay type: functional; conditions: 192 h
# Escherichia coli [3] = test: Antimicrobial activity against wild type Escherichia coli DH5[alpha] after 16 to 20 hrs; assay type: functional
# Escherichia coli [4] = test: Antimicrobial activity against wild type Escherichia coli TG2 after 16 to 20 hrs; assay type: functional
# [5] = target: T1, DNA-directed RNA polymerase subunit beta (Mycobacterium tuberculosis) (UniProt P9WGY9); test: (§1) Inhibition of wild type Mycobacterium tuberculosis RNA polymerase after 10 mins using ribo green staining by rolling circle transcription assay; parameters: unit not given here
# T1 sequence (whole entry): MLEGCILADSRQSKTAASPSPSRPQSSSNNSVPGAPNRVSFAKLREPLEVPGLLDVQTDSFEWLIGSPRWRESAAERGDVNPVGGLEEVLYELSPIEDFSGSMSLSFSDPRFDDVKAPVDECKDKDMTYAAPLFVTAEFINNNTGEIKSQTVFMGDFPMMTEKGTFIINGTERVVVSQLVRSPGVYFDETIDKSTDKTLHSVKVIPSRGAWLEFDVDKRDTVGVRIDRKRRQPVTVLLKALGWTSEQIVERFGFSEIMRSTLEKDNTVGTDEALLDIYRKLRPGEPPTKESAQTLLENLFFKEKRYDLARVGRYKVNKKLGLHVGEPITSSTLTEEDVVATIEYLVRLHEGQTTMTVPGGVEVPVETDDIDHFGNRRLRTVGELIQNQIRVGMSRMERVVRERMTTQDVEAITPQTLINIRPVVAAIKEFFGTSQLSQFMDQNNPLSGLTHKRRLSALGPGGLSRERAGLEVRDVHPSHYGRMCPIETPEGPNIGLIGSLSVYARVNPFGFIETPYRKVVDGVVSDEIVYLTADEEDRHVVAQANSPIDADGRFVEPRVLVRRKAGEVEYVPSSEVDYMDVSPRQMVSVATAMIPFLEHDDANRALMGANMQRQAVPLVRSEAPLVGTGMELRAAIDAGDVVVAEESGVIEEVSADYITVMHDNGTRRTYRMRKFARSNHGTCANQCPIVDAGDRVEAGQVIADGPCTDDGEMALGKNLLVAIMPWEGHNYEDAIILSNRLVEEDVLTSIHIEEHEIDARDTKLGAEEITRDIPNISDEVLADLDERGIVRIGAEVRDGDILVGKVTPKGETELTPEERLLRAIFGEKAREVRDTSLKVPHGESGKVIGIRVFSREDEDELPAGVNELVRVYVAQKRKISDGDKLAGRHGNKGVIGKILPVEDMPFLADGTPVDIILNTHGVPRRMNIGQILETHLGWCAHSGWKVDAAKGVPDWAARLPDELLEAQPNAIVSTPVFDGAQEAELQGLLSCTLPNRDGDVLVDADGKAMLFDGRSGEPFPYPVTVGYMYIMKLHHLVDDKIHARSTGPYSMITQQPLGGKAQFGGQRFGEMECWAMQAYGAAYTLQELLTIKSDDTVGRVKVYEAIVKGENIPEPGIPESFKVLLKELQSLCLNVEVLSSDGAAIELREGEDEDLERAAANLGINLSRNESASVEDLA
# [6] = target: T2, DNA-directed RNA polymerase subunit beta (Mycobacterium tuberculosis, UniProt P9WGY9); test: as §1
# T2 sequence (P9WGY9 whole entry): T1 sequence (whole entry)
# Escherichia coli [7] = test: Antimicrobial activity against Escherichia coli EC2880 mutant after 16 to 20 hrs; assay type: functional
compound,measurement,setting,value
CO[C@H]1/C=C/O[C@@]2(C)Oc3c(C)c(NCCO)c4c(c3C2=O)C(=O)C=C(NC(=O)/C(C)=C\C=C\[C@H](C)[C@H](O)[C@@H](C)[C@@H](O)[C@@H](C)[C@H](OC(C)=O)[C@@H]1C)C4=O,MIC90,[1],> 21.7 µM
same,MIC90,[2],5.32 µM
CO[C@H]1/C=C/O[C@@]2(C)Oc3c(C)c(NCc4ccccc4)c4c(c3C2=O)C(=O)C(/C=N/N2CCN(C)CC2)=C(NC(=O)/C(C)=C\C=C\[C@H](C)[C@H](O)[C@@H](C)[C@@H](O)[C@@H](C)[C@H](OC(C)=O)[C@@H]1C)C4=O,MIC90,[1],> 17.6 µM
same,MIC90,[2],> 4.4 µM
C/C=C/Nc1c(C)c2c3c4c1C(=O)C(=CC4=O)NC(=O)/C(C)=C\C=C\[C@H](C)[C@H](O)[C@@H](C)[C@@H](O)[C@@H](C)[C@H](OC(C)=O)[C@H](C)[C@@H](OC)/C=C/O[C@@](C)(O2)C3=O,MIC90,[1],18.3 µM
same,MIC90,[2],5.2 µM
CO[C@H]1/C=C/O[C@@]2(C)Oc3c(C)c(N(C)C)c4c(c3C2=O)C(=O)C=C(NC(=O)/C(C)=C\C=C\[C@H](C)[C@H](O)[C@@H](C)[C@@H](O)[C@@H](C)[C@H](OC(C)=O)[C@@H]1C)C4=O,MIC90,[1],5.4 µM
same,MIC90,Escherichia coli [3],> 100 µM
same,MIC90,[2],1.8 µM
same,MIC90,Escherichia coli [4],> 100 µM
same,logIC50,[5],-0.298
same,IC50,[6],0.503 µM
same,MIC90,Escherichia coli [7],12.5 µM
CO[C@H]1/C=C/O[C@@]2(C)Oc3c(C)c(NC4CCCCCC4)c4c(O)c(c(/C=N/N5CCN(C)CC5)c(O)c4c3C2=O)NC(=O)/C(C)=C\C=C\[C@H](C)[C@H](O)[C@@H](C)[C@@H](O)[C@@H](C)[C@H](OC(C)=O)[C@@H]1C,MIC90,[1],> 17.4 µM
same,MIC90,[2],3.8 µM
CO[C@H]1/C=C/O[C@@]2(C)Oc3c(C)c(NC4CCCCCC4)c4c(c3C2=O)C(=O)C=C(NC(=O)/C(C)=C\C=C\[C@H](C)[C@H](O)[C@@H](C)[C@@H](O)[C@@H](C)[C@H](OC(C)=O)[C@@H]1C)C4=O,MIC90,[1],> 20.2 µM
same,MIC90,Escherichia coli [3],> 100 µM
same,MIC90,[2],2.2 µM
same,MIC90,Escherichia coli [4],> 100 µM
same,logIC50,[5],1.19
same,IC50,[6],15.4 µM
same,MIC90,Escherichia coli [7],> 12.5 µM
CCNc1c(C)c2c3c4c1C(=O)C(=CC4=O)NC(=O)/C(C)=C\C=C\[C@H](C)[C@H](O)[C@@H](C)[C@@H](O)[C@@H](C)[C@H](OC(C)=O)[C@H](C)[C@@H](OC)/C=C/O[C@@](C)(O2)C3=O,MIC90,[1],21.4 µM
same,MIC90,[2],5.5 µM
CO[C@H]1/C=C/O[C@@]2(C)Oc3c(C)c(NCc4ccccc4)c4c(c3C2=O)C(=O)C=C(NC(=O)/C(C)=C\C=C\[C@H](C)[C@H](O)[C@@H](C)[C@@H](O)[C@@H](C)[C@H](OC(C)=O)[C@@H]1C)C4=O,MIC90,[1],> 20.4 µM
same,MIC90,[2],2.4 µM
O=[N+]([O-])c1cn2c(n1)OC[C@@H](OCc1ccc(OC(F)(F)F)cc1)C2 [PRETOMANID],MIC90,[1],2.3 µM
same,MIC90,[2],0.66 µM
CO[C@H]1/C=C/O[C@@]2(C)Oc3c(C)c(NC4CCCCCC4)c4c(c3C2=O)C(=O)C(/C=N/N2CCN(C)CC2)=C(NC(=O)/C(C)=C\C=C\[C@H](C)[C@H](O)[C@@H](C)[C@@H](O)[C@@H](C)[C@H](OC(C)=O)[C@@H]1C)C4=O,MIC90,[1],13.7 µM
same,MIC90,[2],3.9 µM
CO[C@H]1/C=C/O[C@@]2(C)Oc3c(C)c(NCc4ccccc4)c4c(O)c(c(/C=N/N5CCN(C)CC5)c(O)c4c3C2=O)NC(=O)/C(C)=C\C=C\[C@H](C)[C@H](O)[C@@H](C)[C@@H](O)[C@@H](C)[C@H](OC(C)=O)[C@@H]1C,MIC90,[1],> 17.5 µM
same,MIC90,[2],> 4.4 µM
NNC(=O)c1ccncc1 [ISONIAZID],MIC90,[1],> 128 µM
same,MIC90,[2],0.39 µM
CCNc1c(C)c2c3c4c(O)c(/C=N/N5CCN(C)CC5)c(c(O)c14)NC(=O)/C(C)=C\C=C\[C@H](C)[C@H](O)[C@@H](C)[C@@H](O)[C@@H](C)[C@H](OC(C)=O)[C@H](C)[C@@H](OC)/C=C/O[C@@](C)(O2)C3=O,MIC90,[1],> 18.8 µM
same,MIC90,[2],> 4.7 µM

# — ChEMBL document CHEMBL1909569 (Bioorg Med Chem Lett, 2011)
